Data as given in BindingDB's records for doi:10.1021/acs.jnatprod.5b00508 (Korea University, 2015).

Tests used:
[1] = Inhibition of amyloid beta (25 to 35 residues) (unknown origin) aggregate-induced toxicity in rat PC12 cells preincubated for 1 hr followed by amyloid beta challenge measured after 24 hrs by MTT assay
[2] = Inhibition of amyloid beta (1 to 42 residues) (unknown origin) aggregate-induced toxicity in rat PC12 cells assessed as cell viability at 4 to 100 ug/ml pre-incubated for 24 hrs with Abeta ( 1 to 42) followed by compound-Abeta (1 to 42) mixture addition to cells and measured after 24 hrs by MTT assay

Compound	EC50 [1] [µM]	EC50 [2] [µM]
CC1(C)C=Cc2cc(C(=O)O)ccc2O1	252	–
C[C@H]1CN2C[C@]34C[C@@]5(C(=O)Nc6c5ccc5c6C=CC(C)(C)O5)C(C)(C)[C@@H]3C[C@@]2(C1)C(=O)N4C	> 300	–
CC(=O)O[C@H]1CC(=O)OC(C)(C)[C@@H]2CC[C@]3(C)[C@H](CC=C(C)[C@@]34C[C@]3(OC(C)=C(C)C3=O)C(=O)O4)[C@@]12C	113	–
C[C@@H]1C[C@@]23C[C@H]4C(C)(C)[C@@]5(C[C@]4(CN2C1=O)NC3=O)C(=O)Nc1c5ccc2c1C=CC(C)(C)O2	> 300	97.9
C[C@@H]1C[C@@]23C[C@H]4C(C)(C)[C@@]5(C[C@]4(CN2C1=O)N(C)C3=O)C(=O)Nc1c5ccc2c1C=CC(C)(C)O2	> 300	–
C[C@H]1CN2C[C@]34C[C@@]5(C(=O)Nc6c5ccc5c6OC=CC(C)(C)O5)C(C)(C)[C@@H]3C[C@@]2(C1)C(=O)N4C	> 300	105
C[C@@H]1C[C@@]23C[C@H]4C(C)(C)[C@@]5(C[C@]4(CN2C1=O)NC3=O)C(=O)Nc1c5ccc2c1OC=CC(C)(C)O2	> 300	–
CC1=CC[C@@H]2[C@@]3(C)[C@@H](O)CC(=O)OC(C)(C)[C@@H]3CC[C@@]2(C)[C@]12Cc1c(c(C)c(C)oc1=O)O2	> 300	–
CC1=CC[C@@H]2[C@@]3(C)C=CC(=O)OC(C)(C)[C@@H]3CC[C@@]2(C)[C@]12Cc1c(c(C)c(C)oc1=O)O2	65.4	–
CN1C(=O)[C@@]23CCC(=O)N2C[C@@]12C[C@@]1(C(=O)Nc4c1ccc1c4C=CC(C)(C)O1)C(C)(C)[C@@H]2C3	150	89.9
O=C(/C=C/c1ccc(O)c(O)c1)O[C@H](Cc1ccc(O)c(O)c1)C(=O)O [Rosmarinic acid, 2]	68.1	57.2
